Measurements reported in patent publication US20090123397A1, “Microbiocidal compositions” (Thor Specialities (UK) Limited, priority 2005, published 2009).

Experiments:
Aspergillus Niger [1] = assay: Efficacy of C5 alkane diols vs. C8 alkane diols; format: cell-based; design: key: + = no growth inhibition; − = growth inhibition
Procedure: (§1) Tables VIIIA to VIIID—Efficacy of C5 alkane diols vs. C8 alkane diols. […] Tables VIIIA to VIIID above illustrate the results of tests of the efficacy of octane diol compared to pentane diol on various organisms. These tests were carried out in a similar manner to those described above. The percentages at the top line of each table indicate the amount of diol used by weight in the preservative mixture.

Candida albicans [2] = assay: Efficacy of C5 alkane diols vs. C8 alkane diols; format: cell-based; design: key: + = no growth inhibition; − = growth inhibition
Procedure: as §1

Pseudomonas aeruginosa [3] = assay: Efficacy of C5 alkane diols vs. C8 alkane diols; format: cell-based; design: key: + = no growth inhibition; − = growth inhibition
Procedure: as §1

Staphylococcus aureus [4] = assay: Efficacy of C5 alkane diols vs. C8 alkane diols; format: cell-based; design: key: + = no growth inhibition; − = growth inhibition
Procedure: as §1

Pseudomonas aeruginosa [5] = assay: MIC / growth test of MIT and CAG mixtures in Müller-Hinton broth; format: cell-based, Pseudomonas aeruginosa ATCC 9027; design: key to growth of the micro-organism: growth of the micro-organism took place (symbol “+”); or not (symbol “−”); conditions: 72 h
Procedure: (§2) For this purpose, aqueous mixtures were produced with various concentrations of 2-methylisothiazolin-3-one (MIT) and caprylyl glycol (CAG) and the activity of these mixtures were tested on the micro-organisms listed in Table VI.
(§3) In addition to the active component(s) and water, the aqueous mixtures contained a nutrient medium, namely a Müller-Hinton broth (Manufacturer: Oxoid; product code CM405). The incubation time was 72 h at 25° C. (bacterial and yeast) or 7 days at 25° C. (mould). Each sample was incubated on an incubation shaker at 105 rpm.
(§4) The tables also show whether growth of the micro-organism took place (symbol “+”) or not (symbol “−”).
(§5) Tables I to V also show the minimum inhibition concentrations (MIC).
(§6) The synergy index is calculated according to the method of F. C. Kull et al., Applied Microbiology, Vol. 9 (1961), p. 538. Here the synergy index is calculated using the following formula:
(§7) Synergy index=Qa/QA+Qb/QB
(§8) When this formula is used on the biocide system tested here, the quantities in the formula have the following meaning: • Qa=MIC of MIT in the preservative mixture of MIT and CAG • QA=MIC of MIT as sole ingredient • Qb=MIC of CAG in the preservative mixture of MIT and CAG • QB=MIC of CAG as sole ingredient
(§9) When the synergy index has the value 1, this means that there is an addition of the activity of the two ingredients. When the synergy index has a value of less than 1, this means that a synergy of the two ingredients exists.

Staphylococcus aureus [6] = assay: as above; format: cell-based, Staphylococcus aureus ATCC 6538; design: key to growth of the micro-organism: growth of the micro-organism took place (symbol “+”); or not (symbol “−”); conditions: 72 h
Procedure: as §2, §3, §4, §5, §6, §7, §8, §9

Enterococcus faecalis = assay: as above; format: cell-based, Enterococcus faecalis NCIMB 12756; design: key to growth of the micro-organism: growth of the micro-organism took place (symbol “+”); or not (symbol “−”); conditions: 72 h
Procedure: as §2, §3, §4, §5, §6, §7, §8, §9

Aspergillus niger [7] = assay: as above; format: cell-based, Aspergillus niger IMI 149007; design: key to growth of the micro-organism: growth of the micro-organism took place (symbol “+”); or not (symbol “−”); conditions: 5 days
Procedure: as §2
In addition to the active component(s) and water, the aqueous mixtures contained a nutrient medium, namely a Müller-Hinton broth (Manufacturer: Oxoid; product code CM405). […] (mould). Each sample was incubated on an incubation shaker at 105 rpm.
as §4, §5, §6, §7, §8, §9

Candida albicans [8] = assay: as above; format: cell-based, Candida albicans NCPF 3179; design: key to growth of the micro-organism: growth of the micro-organism took place (symbol “+”); or not (symbol “−”); conditions: 72 h
Procedure: as §2, §3, §4, §5, §6, §7, §8, §9

CCCC(O)CO (stereo not drawn) [1,2 Pentane diol, reference compound]
+: growth inhibition (Aspergillus Niger [1]; diol 0.2% by weight) | growth inhibition (Aspergillus Niger [1]; diol 0.4% by weight) | growth inhibition (Aspergillus Niger [1]; diol 0.6% by weight) | growth inhibition (Aspergillus Niger [1]; diol 0.8% by weight) | growth inhibition (Aspergillus Niger [1]; diol 1.0% by weight) | growth inhibition (Candida albicans [2]; diol 0.2% by weight) | growth inhibition (Candida albicans [2]; diol 0.4% by weight) | growth inhibition (Candida albicans [2]; diol 0.6% by weight) | growth inhibition (Candida albicans [2]; diol 0.8% by weight) | growth inhibition (Candida albicans [2]; diol 1.0% by weight) | growth inhibition (Pseudomonas aeruginosa [3]; diol 0.2% by weight) | growth inhibition (Pseudomonas aeruginosa [3]; diol 0.4% by weight) | growth inhibition (Pseudomonas aeruginosa [3]; diol 0.6% by weight) | growth inhibition (Pseudomonas aeruginosa [3]; diol 0.8% by weight) | growth inhibition (Pseudomonas aeruginosa [3]; diol 1.0% by weight) | growth inhibition (Staphylococcus aureus [4]; diol 0.2% by weight) | growth inhibition (Staphylococcus aureus [4]; diol 0.4% by weight) | growth inhibition (Staphylococcus aureus [4]; diol 0.6% by weight) | growth inhibition (Staphylococcus aureus [4]; diol 0.8% by weight) | growth inhibition (Staphylococcus aureus [4]; diol 1.0% by weight)

CCCCCCC(O)CO (stereo not drawn) [1,2-Octane diol]
+: growth inhibition (Candida albicans [2]; diol 0.2% by weight) | growth inhibition (Pseudomonas aeruginosa [3]; diol 0.2% by weight)
−: growth inhibition (Aspergillus Niger [1]; diol 0.2% by weight) | growth inhibition (Aspergillus Niger [1]; diol 0.4% by weight) | growth inhibition (Aspergillus Niger [1]; diol 0.6% by weight) | growth inhibition (Aspergillus Niger [1]; diol 0.8% by weight) | growth inhibition (Aspergillus Niger [1]; diol 1.0% by weight) | growth inhibition (Candida albicans [2]; diol 0.4% by weight) | growth inhibition (Candida albicans [2]; diol 0.6% by weight) | growth inhibition (Candida albicans [2]; diol 0.8% by weight) | growth inhibition (Candida albicans [2]; diol 1.0% by weight) | growth inhibition (Pseudomonas aeruginosa [3]; diol 0.4% by weight) | growth inhibition (Pseudomonas aeruginosa [3]; diol 0.6% by weight) | growth inhibition (Pseudomonas aeruginosa [3]; diol 0.8% by weight) | growth inhibition (Pseudomonas aeruginosa [3]; diol 1.0% by weight) | growth inhibition (Staphylococcus aureus [4]; diol 0.2% by weight) | growth inhibition (Staphylococcus aureus [4]; diol 0.4% by weight) | growth inhibition (Staphylococcus aureus [4]; diol 0.6% by weight) | growth inhibition (Staphylococcus aureus [4]; diol 0.8% by weight) | growth inhibition (Staphylococcus aureus [4]; diol 1.0% by weight)

CCCCCCC(O)CO (stereo not drawn) [CAG, caprylyl glycol]
3000 ppm: QB (CAG): MIC of CAG as sole ingredient (Candida albicans [8])
+: growth of the micro-organism (Pseudomonas aeruginosa [5]; MIT 0 ppm, CAG 500 ppm) | growth of the micro-organism (Pseudomonas aeruginosa [5]; MIT 0 ppm, CAG 1000 ppm) | growth of the micro-organism (Pseudomonas aeruginosa [5]; MIT 0 ppm, CAG 2000 ppm) | growth of the micro-organism (Pseudomonas aeruginosa [5]; MIT 0 ppm, CAG 3000 ppm) | growth of the micro-organism (Staphylococcus aureus [6]; MIT 0 ppm, CAG 500 ppm) | growth of the micro-organism (Enterococcus faecalis; MIT 0 ppm, CAG 500 ppm) | growth of the micro-organism (Enterococcus faecalis; MIT 0 ppm, CAG 1000 ppm) | growth of the micro-organism (Aspergillus niger [7]; MIT 0 ppm, CAG 500 ppm) | growth of the micro-organism (Aspergillus niger [7]; MIT 0 ppm, CAG 1000 ppm) | growth of the micro-organism (Candida albicans [8]; MIT 0 ppm, CAG 500 ppm) | growth of the micro-organism (Candida albicans [8]; MIT 0 ppm, CAG 1000 ppm) | growth of the micro-organism (Candida albicans [8]; MIT 0 ppm, CAG 2000 ppm)
4000 ppm: QB (CAG): MIC of CAG as sole ingredient (Pseudomonas aeruginosa [5])
2000 ppm: QB (CAG): MIC of CAG as sole ingredient (Enterococcus faecalis) | QB (CAG): MIC of CAG as sole ingredient (Aspergillus niger [7])
−: growth of the micro-organism (Pseudomonas aeruginosa [5]; MIT 0 ppm, CAG 4000 ppm) | growth of the micro-organism (Staphylococcus aureus [6]; MIT 0 ppm, CAG 1000 ppm) | growth of the micro-organism (Staphylococcus aureus [6]; MIT 0 ppm, CAG 2000 ppm) | growth of the micro-organism (Staphylococcus aureus [6]; MIT 0 ppm, CAG 3000 ppm) | growth of the micro-organism (Staphylococcus aureus [6]; MIT 0 ppm, CAG 4000 ppm) | growth of the micro-organism (Enterococcus faecalis; MIT 0 ppm, CAG 2000 ppm) | growth of the micro-organism (Enterococcus faecalis; MIT 0 ppm, CAG 3000 ppm) | growth of the micro-organism (Enterococcus faecalis; MIT 0 ppm, CAG 4000 ppm) | growth of the micro-organism (Aspergillus niger [7]; MIT 0 ppm, CAG 2000 ppm) | growth of the micro-organism (Aspergillus niger [7]; MIT 0 ppm, CAG 3000 ppm) | growth of the micro-organism (Aspergillus niger [7]; MIT 0 ppm, CAG 4000 ppm) | growth of the micro-organism (Candida albicans [8]; MIT 0 ppm, CAG 3000 ppm) | growth of the micro-organism (Candida albicans [8]; MIT 0 ppm, CAG 4000 ppm)
1000 ppm: QB (CAG): MIC of CAG as sole ingredient (Staphylococcus aureus [6])

Cn1sccc1=O [MIT, 2-methylisothiazolin-3-one]
−: growth of the micro-organism (Pseudomonas aeruginosa [5]; MIT 25 ppm, CAG 0 ppm) | growth of the micro-organism (Pseudomonas aeruginosa [5]; MIT 37.5 ppm, CAG 0 ppm) | growth of the micro-organism (Pseudomonas aeruginosa [5]; MIT 50 ppm, CAG 0 ppm) | growth of the micro-organism (Pseudomonas aeruginosa [5]; MIT 75 ppm, CAG 0 ppm) | growth of the micro-organism (Staphylococcus aureus [6]; MIT 25 ppm, CAG 0 ppm) | growth of the micro-organism (Staphylococcus aureus [6]; MIT 37.5 ppm, CAG 0 ppm) | growth of the micro-organism (Staphylococcus aureus [6]; MIT 50 ppm, CAG 0 ppm) | growth of the micro-organism (Staphylococcus aureus [6]; MIT 75 ppm, CAG 0 ppm) | growth of the micro-organism (Enterococcus faecalis; MIT 75 ppm, CAG 0 ppm) | growth of the micro-organism (Aspergillus niger [7]; MIT 300 ppm, CAG 0 ppm) | growth of the micro-organism (Candida albicans [8]; MIT 200 ppm, CAG 0 ppm)
300 ppm: QA (MIT): MIC of MIT as sole ingredient (Aspergillus niger [7])
75 ppm: QA (MIT): MIC of MIT as sole ingredient (Enterococcus faecalis)
25 ppm: QA (MIT): MIC of MIT as sole ingredient (Pseudomonas aeruginosa [5]) | QA (MIT): MIC of MIT as sole ingredient (Staphylococcus aureus [6])
+: growth of the micro-organism (Pseudomonas aeruginosa [5]; MIT 10 ppm, CAG 0 ppm) | growth of the micro-organism (Staphylococcus aureus [6]; MIT 10 ppm, CAG 0 ppm) | growth of the micro-organism (Enterococcus faecalis; MIT 10 ppm, CAG 0 ppm) | growth of the micro-organism (Enterococcus faecalis; MIT 25 ppm, CAG 0 ppm) | growth of the micro-organism (Enterococcus faecalis; MIT 37.5 ppm, CAG 0 ppm) | growth of the micro-organism (Enterococcus faecalis; MIT 50 ppm, CAG 0 ppm) | growth of the micro-organism (Aspergillus niger [7]; MIT 10 ppm, CAG 0 ppm) | growth of the micro-organism (Aspergillus niger [7]; MIT 25 ppm, CAG 0 ppm) | growth of the micro-organism (Aspergillus niger [7]; MIT 37.5 ppm, CAG 0 ppm) | growth of the micro-organism (Aspergillus niger [7]; MIT 50 ppm, CAG 0 ppm) | growth of the micro-organism (Aspergillus niger [7]; MIT 75 ppm, CAG 0 ppm) | growth of the micro-organism (Aspergillus niger [7]; MIT 100 ppm, CAG 0 ppm) | growth of the micro-organism (Aspergillus niger [7]; MIT 200 ppm, CAG 0 ppm) | growth of the micro-organism (Candida albicans [8]; MIT 10 ppm, CAG 0 ppm) | growth of the micro-organism (Candida albicans [8]; MIT 25 ppm, CAG 0 ppm) | growth of the micro-organism (Candida albicans [8]; MIT 37.5 ppm, CAG 0 ppm) | growth of the micro-organism (Candida albicans [8]; MIT 50 ppm, CAG 0 ppm) | growth of the micro-organism (Candida albicans [8]; MIT 75 ppm, CAG 0 ppm) | growth of the micro-organism (Candida albicans [8]; MIT 100 ppm, CAG 0 ppm)
200 ppm: QA (MIT): MIC of MIT as sole ingredient (Candida albicans [8])
